Experimental data taken from US20250213496A1, “LIPID NANOPARTICLES AND PREPARATION METHODS AND USE THEREOF” (priority 2022, published 2025).

Assay: HPLC quantification of retinoid compound in LNP (encapsulation efficiency)
Assay type: physicochemical
Details: HPLC after diluting LNP with ethanol; AM80 275 nm, ATRA 350 nm
Method: The content of the retinoid compound in the LNP is determined by high performance liquid chromatography (HPLC), including: preparing a gradient dilution standard solution of ATRA or AM80, establishing the HPLC method, sequentially injecting 100 μL of different concentrations of the standard solution, and plotting the standard curve by using the ultraviolet absorption peak areas of different concentrations of ATRA or AM80. The five-component LNP is broken by ethanol with a volume more than 10 times the volume of the LNP, and the volume of each injection is controlled to be 100 μL; the peak area is substituted into the standard curve to obtain the content of ATRA or AM80 in the lipid solution.
Chromatographic conditions: Sunfire C18 column (150 mm×4.6 mm, 5 μm), column temperature (25° C.), mobile phase A (acetonitrile), mobile phase B (0.1 M triethylamine acetate buffer solution with a pH of 7.0), flow rate of 1.0 mL/min, and injection volume of 100 μL each time.
The standard solutions of AM80 with different concentrations were prepared with ethanol, and HPLC injection and gradient elution were performed. […] After diluting LNP with the ethanol, HPLC injection was performed, the AM80 content in the LNP solution was quantified according to the absorption peak area at 275 nm, and an encapsulation efficiency of AM80 is 45%-65%. […]

| Structure (SMILES) | encapsulation efficiency of retinoid compound in LNP |
| --- | --- |
| CC1=C(/C=C/C(C)=C/C=C/C(C)=C/C(=O)O)C(C)(C)CCC1 [ATRA, all-trans-retinoic acid] | 40%-70 |
| CC1(C)CCC(C)(C)c2cc(NC(=O)c3ccc(C(=O)O)cc3)ccc21 [AM80, tamibarotene] | 45%-65 |
